These results are taken from ChEMBL document CHEMBL1146131, “3D-QSAR studies of farnesyltransferase inhibitors: a comparative molecular field analysis approach” (Bioorg Med Chem Lett, 2006).

The experiment concerns the target Protein farnesyltransferase (Homo sapiens, UniProt P49354+P49356). The experiment in a line: Inhibition of FTase. The class given is protein-complex assay.
One may read the IC50 as the concentration needed to halve the response being measured. For the compound `Cn1cncc1C(OCc1ccc(C#N)cc1C(=O)Nc1cccc(Cl)c1)c1ccc(C#N)cc1` (stereo not given), the midpoint of inhibition, the IC50, lay at 759 nM. For the compound `Cn1cncc1C(OCc1ccc(C#N)cc1-c1cccc(Cl)c1)c1ccc(C(F)(F)F)cc1` (stereo not given), the IC50 was 1120 nM. With `CCOc1ccc(-c2cc(C#N)ccc2COC(c2ccc(C#N)cc2)c2cncn2C)cc1` (stereo not given), inhibition was half-maximal at 1200 nM (IC50). The IC50 values of the last two compounds are within 1.5-fold of each other. The compound `COc1cccc(-c2cc(NS(C)(=O)=O)ccc2COC(c2ccc(C#N)cc2)c2cncn2C)c1` (stereo not given) had an IC50 of 35500 nM. Compared with the last compound, the IC50 is about 30-fold higher.

Compound `N#Cc1ccc(C(OCc2ccc(C#N)cc2-c2ccc3c(c2)OCO3)c2cnccc2Cl)cc1` (stereo not given) showed an IC50 of 15100 nM. Take `COC(=O)c1ccc(COC(c2ccc(C#N)cc2)c2cncn2C)c(-c2cccc(OC)c2)c1` (stereo not given): the 50% inhibitory concentration (IC50) is 13200 nM. Regarding `Cn1cncc1C(OCc1ccc(C#N)cc1NS(=O)(=O)c1cccs1)c1ccc(C#N)cc1` (stereo not given), half-maximal inhibition (IC50) required 891 nM. This IC50 lies about 15-fold lower than the previous one.

In turn, `Cn1cncc1C(OCc1ccc(C#N)cc1-c1cccc(Cl)c1)c1ccc(C#N)cc1F` (stereo not given) showed an IC50 of 776 nM. `Cn1cncc1C(OCc1ccc(C#N)cc1-c1ccc2c(c1)OC(F)(F)O2)c1ccc(C#N)cc1` (stereo not given) gave an IC50 of 1120 nM. This IC50 and that of the compound before are within 1.5-fold of each other. As for `Cn1cncc1C(OCc1ccc(C#N)cc1NCc1cc(F)cc(F)c1)c1ccc(C#N)cc1` (stereo not given), it took 617 nM to reach half-maximal inhibition (IC50).

As to `COc1cccc(-c2cc(C#N)ccc2COC(c2ccc(C#N)c(Cl)c2)c2cncn2C)c1` (stereo not given), the IC50 is 977 nM.

Consider `CCOc1cccc(-c2cc(Cl)ccc2COC(c2ccc(C#N)cc2)c2cncn2C)c1` (stereo not given), for which inhibition was half-maximal at 1120 nM (IC50).

Consider `Cn1cncc1C(OCc1ccc(Cl)cc1-c1cccc(Cl)c1)c1ccc(C#N)cc1` (stereo not given), for which the IC50 is 813 nM.

The compound `Cc1ncc(C(OCc2ccc(C#N)cc2-c2cccc(Cl)c2)c2ccc(C#N)cc2)n1C` (stereo not given) had an IC50 of 2040 nM.

`COCC(=O)Nc1ccc(COC(c2ccc(C#N)cc2)c2cncn2C)c(-c2cccc(OC)c2)c1` (stereo not given): the IC50 was 11200 nM. Compound `COc1cccc(-c2cc(Cl)ccc2COC(c2ccc(C#N)cc2)c2cncn2C)c1` (stereo not given) showed an IC50 of 912 nM. `Cn1cncc1C(OCc1ccc(C#N)cc1-c1ccc2c(c1)OCO2)c1ccc(C#N)cc1` (stereo not given) gave an IC50 of 871 nM. The compound `Cn1cncc1C(OCc1ccc(Cl)cc1-c1ccc(Cl)cc1)c1ccc(C#N)cc1` (stereo not given) gave an IC50 of 4900 nM. The compound `Cn1cncc1C(OCc1ccc(C#N)cc1NS(=O)(=O)c1cccc2ccccc12)c1ccc(C#N)cc1` (stereo not given) had an IC50 of 2630 nM. For the compound `Cn1cncc1C(OCc1ccc(C#N)cc1-c1cccc(Cl)c1)c1ccc(C#N)cc1` (stereo not given), the IC50 is 871 nM. This IC50 is about 3-fold lower than that of the compound before.

`Cn1cncc1C(OCc1ccc(C#N)cc1NC(=O)c1ccccc1)c1ccc(C#N)cc1` (stereo not given): half-maximal inhibition (IC50) required 5010 nM. This IC50 is about 5.8-fold higher than that of the compound before. As to `COc1ccc(-c2cc(C#N)ccc2COC(c2ccc(C#N)cc2)c2cncn2C)cc1` (stereo not given), the IC50 was 977 nM.

On to `COCc1cccc(-c2cc(C#N)ccc2COC(c2ccc(C#N)cc2)c2cncn2C)c1` (stereo not given), for which the IC50 was 191 nM. This IC50 lies about 5.1-fold lower than the previous one. On to `Cn1cncc1C(OCc1ccc(C#N)cc1-c1cccc(Cl)c1)c1ccc(C#N)c(F)c1` (stereo not given), for which half-maximal inhibition (IC50) was put at 447 nM. As for `Cn1cncc1C(OCc1ccc(C#N)cc1-c1cccc2ccccc12)c1ccc(C#N)cc1` (stereo not given), the IC50 was 955 nM. The compound `Cn1cncc1C(OCc1ccc(C#N)cc1-c1cc(F)cc(F)c1)c1ccc(C#N)cc1` (stereo not given) gave an IC50 of 1000 nM. `Cn1cncc1C(OCc1ccc(C#N)cc1-c1cccc(OC(F)(F)F)c1)c1ccc(C#N)cc1` (stereo not given) showed an IC50 of 851 nM.

Regarding `Cc1ccc(-c2cc(C#N)ccc2COC(c2ccc(C#N)cc2)c2cncn2C)cc1` (stereo not given), the IC50 is 1120 nM. In turn, `COc1cccc(-c2cc([N+](=O)[O-])ccc2COC(c2ccc(C#N)cc2)c2cncn2C)c1` (stereo not given) showed an IC50 of 1120 nM.

Turning to `Cc1ncc(C(OCc2ccc(C#N)cc2-c2ccc3c(c2)OCO3)c2ccc(C#N)cc2)n1C` (stereo not given), the half-inhibitory concentration (IC50) is 1620 nM. Regarding `COc1cccc(-c2cc(N)ccc2COC(c2ccc(C#N)cc2)c2cncn2C)c1` (stereo not given), 40700 nM corresponded to half-maximal inhibition (IC50). With `COc1cccc(-c2cc(C#N)ccc2COC(c2ccc(Cl)cc2)c2cncn2C)c1` (stereo not given), it took 2040 nM to reach half-maximal inhibition (IC50). Regarding `COc1cccc(-c2cc(C=O)ccc2COC(c2ccc(C#N)cc2)c2cncn2C)c1` (stereo not given), the IC50 was 1620 nM. On to `Cc1ccc(S(=O)(=O)Nc2cc(C#N)ccc2COC(c2ccc(C#N)cc2)c2cncn2C)cc1` (stereo not given), for which the IC50 was 1000 nM. Regarding `N#Cc1ccc(C(OCc2ccc(C#N)cc2-c2cccc(Cl)c2)c2cncs2)cc1` (stereo not given), the IC50 was 4070 nM.

Regarding `COc1cccc(-c2cc(C(=O)O)ccc2COC(c2ccc(C#N)cc2)c2cncn2C)c1` (stereo not given), 83200 nM corresponded to half-maximal inhibition (IC50). The value for `Cn1cncc1C(OCc1ccc(C#N)cc1-c1cccc2cccnc12)c1ccc(C#N)cc1` (stereo not given) was 5250 nM; that for `Cn1cncc1C(OCc1ccc(Cl)cc1-c1ccccc1Cl)c1ccc(C#N)cc1` (stereo not given) was 8910 nM; that for `Cn1cncc1C(OCc1ccc(C#N)cc1C(=O)Nc1ccccc1)c1ccc(C#N)cc1` (stereo not given) was 2240 nM. Turning to `CCOc1cccc(-c2cc(C#N)ccc2COC(c2ccc(C#N)cc2)c2cncn2C)c1` (stereo not given), half-maximal inhibition (IC50) required 692 nM.
